Measurements: US8309602B2, “Multi-substituted diarylanilines as non-nucleoside HIV reverse transcriptase inhibitors, and preparation and use thereof” (Institute of Pharmacology and Toxicology, priority 2007, dated 2012)
Converted amounts (≈) assume the structure as drawn. Like-named read-outs stand apart in the source and are kept apart here.

Assays:
Type in all cases: cell-based
[1] = test system: HIV virus (IIIB); experiment: Assay of anti-HIV activity (H9 cell model), P24 antigen ELISA; settings: for SI (CC50/EC50): H9 cell line, ratio of cytotoxicity CC50 to activity EC50; for EC50: H9 cell line infected with HIV (IIIB), 50% inhibition of virus replication
Experimental: Reference document (J. Med. Chem. 2004, 47, 756-760). Lymphocyte H9 was cultured at 37° C. in culture medium 1640 and 5% CO2. The tested compound was initially dissolved in DMSO, and then diluted with culture medium to conventional screening concentration: 100, 20, 4, 0.8 μg/mL. The cultured H9 cells were divided into two parts, wherein one of the parts was infected with HIV virus (IIIB) (m.i.o. 0.1-0.01 infectious Units/cell), which was used for assaying activity. The other part of the cells was not added with viruses but only with culture medium, which was used for assaying toxicity. The two parts of the cells were cultured under completely identical conditions (37° C., 5% CO2) for 4 hours, washed with fresh culture medium for three times, and then were added respectively to the prepared tested samples of different concentrations or to culture medium (the latter was positive infection control or negative drug control), and meanwhile AZT was used as positive drug control. All these cells were cultured at 37° C. in 5% CO2 for 4 days. In the fourth day, the cell membranes of the cells infected by viruses were removed, and the cytosol was tested by P24 antigen ELISA method to assay the activity of the sample, expressed using EC50. EC50 was an effective concentration when virus replication was inhibited by 50%. The part of the cells without viruses added were tested by the method of counting cells to assay the toxicity of the sample, expressed using CC50. CC50 was a concentration when growth cells were killed by 50%.

[2] = Cytotoxicity test of compound in MT-2 cells (XTT); settings: human, MT-2 cell line, uninfected cells
Experimental: (§1) Reference documents (Jiang, S., et al. Antimicrob. Agents Chemother. 2004, 48, 4349-4359). In 96 wells culture plate, 50 μl of different concentrations of compound solutions were mixed with PBS in the same volume, incubated at 37° C. for 30 minutes, added with 100 μL TM-2 (or H9) cell (1×10^5/mL, RPIM 1640 culture medium containing 10% serum), mixed uniformly, and incubated at 37° C. overnight.

[3] = test system: HIV-1IIIB virus strains; experiment: Assay of anti-HIV activity (MT-2 cell model), p24 antigen ELISA; settings: for EC50: MT-2 cell line infected with HIV-1IIIB, 50% virus inhibition; for SI (CC50/EC50): MT-2 cell line, ratio of cytotoxicity CC50 to activity EC50
Experimental: Reference documents (Jiang, S., et al. Antimicrob. Agents Chemother. 2004, 48, 4349-4359). In 96 wells culture plate, 50 μl of different concentrations of compound solutions were mixed with HIV-1IIIB virus strains (100 TCID50) in the same volume, incubated at 37° C. for 30 minutes, added with 100 μl TM-2 cell (1×10^5/mL, RPIM 1640 culture medium containing 10% serum), mixed uniformly, and incubated at 37° C. overnight. In the second day, 150 μl supernatant was sucked off and supplemented with fresh culture medium in the same volume, the compound solutions were incubated continuously at 37° C. for 3 days, and the cell pathology effect (CPE) was recorded in the fourth day. Then 100 μl cultured supernatant was sucked up to determine p24 antigen therein with 5% Triton X-100 lytic virus particles by using ELISA method. Briefly, HIVIG (2 μg/ml) was used to encapsulate enzyme standard plate, sealed with 1% fat-free milk, and then added with virus lytic solution, incubated at 37° C. for 60 minutes. After the plate was washed completely, anti-p24 monoclonal antibody-183-12H-5C, goat anti-mouse antibody labeled with biotin and horse radish peroxidase labeled with avidin were added. Then the compounds were developed with TMB, and the light density was tested at 450 nm. The virus inhibition concentration of 50% (EC50) of the compounds was calculated by using CalcuSyn software.

[4] = Cytotoxicity test of compound in H9 cells; settings: human, H9 cell line, uninfected cells
Experimental: (§2) Reference document (J. Med. Chem. 2004, 47, 756-760). Lymphocyte H9 was cultured at 37° C. in culture medium 1640 and 5% CO2. […] The cultured H9 cells were divided into two parts, wherein one of the parts was infected with HIV virus (IIIB) (m.i.o. 0.1-0.01 infectious Units/cell), which was used for assaying activity. The other part of the cells was not added with viruses but only with culture medium, which was used for assaying toxicity. The two parts of the cells were cultured under completely identical conditions (37° C., 5% CO2) for 4 hours, washed with fresh culture medium for three times, and then were added respectively to the prepared tested samples of different concentrations or to culture medium (the latter was positive infection control or negative drug control), and meanwhile AZT was used as positive drug control. All these cells were cultured at 37° C. in 5% CO2 for 4 days. […] The part of the cells without viruses added were tested by the method of counting cells to assay the toxicity of the sample, expressed using CC50. […] Reference documents (Jiang, S., et al. Antimicrob. Agents Chemother. 2004, 48, 4349-4359). In 96 wells culture plate, 50 μl of different concentrations of compound solutions were mixed with PBS in the same volume, incubated at 37° C. for 30 minutes, added with 100 μL TM-2 (or H9) cell (1×10^5/mL, RPIM 1640 culture medium containing 10% serum), mixed uniformly, and incubated at 37° C. overnight.

[5] = test system: MT-2 cells; experiment: Cytotoxicity test of compound in MT-2 cells (XTT); settings: MT-2 cell line, uninfected cells
Experimental: as §1

[6] = test system: H9 cells; experiment: Cytotoxicity test of compound in H9 cells; settings: H9 cell line, uninfected cells
Experimental: as §2

[7] = Human immunodeficiency virus 1, read-out: EC50
[8] = Human immunodeficiency virus 1, MT2, read-out: EC50

SMILES	SI (CC50/EC50) [1]	EC50 [1, 7]	CC50 at 4 days [2]	EC50 [3, 8]	SI (CC50/EC50) [3]	CC50 at 4 days [4]	CC50 at 4 days ([2]; MT-2 cells)	CC50 at 4 days ([4]; H9 lymphocyte cells)	EC50 [1]	CC50 [5]	EC50 [3]	CC50 [6]
Cc1cc(Br)cc(C)c1Oc1cc(Nc2ccc(C#N)cc2)c([N+](=O)[O-])cc1[N+](=O)[O-] [Compound I-1, N^1-(4′-cyanophenyl)-5-(2′,6′-dimethyl-4′-bromophenoxy)-2,4-dinitroaniline]	>234	0.11 µg/mL (≈ 0.228 µM)	> 100 µg/mL	0.14 µg/mL (≈ 0.29 µM)	>714	> 25 µg/mL						
Cc1cc(Br)cc(C)c1Oc1cc(Nc2ccc(C#N)cc2)c(N)cc1N [Compound I-8, 5-(4′-Bromo-2′,6′-dimethylphenoxy)-N^1-(4′-cyanophenyl)benzene-1,2,4-triamine]	239	0.068 µg/mL (≈ 0.161 µM)		0.13 µg/mL (≈ 0.307 µM)	132		17.2 µg/mL (≈ 40.6 µM)	16.2 µg/mL (≈ 38.4 µM)				
Cc1cc(C)c(Nc2cc(Nc3ccc(C#N)cc3)c([N+](=O)[O-])cc2[N+](=O)[O-])c(C)c1 [Compound I-3, N^1-(4′-cyanophenyl)-2,4-dinitro-N^5-(2′,4′,6′-trimethylphenyl)-benzene-1,5-diamine]	>455	0.055 µg/mL (≈ 0.132 µM)	> 100 µg/mL	0.18 µg/mL (≈ 0.431 µM)	>556	> 25 µg/mL						
Cc1cccc(C)c1Oc1cc(Nc2ccc(C#N)cc2)c([N+](=O)[O-])cc1[N+](=O)[O-] [Compound I-2, N^1-(4′-cyanophenyl)-5-(2′,6′-dimethylphenoxy)-2,4-dinitroaniline]	>113	0.22 µg/mL (≈ 0.544 µM)	> 100 µg/mL	3.71 µg/mL (≈ 9.17 µM)	>27	> 25 µg/mL						
Cc1cccc(C)c1Oc1ccc([N+](=O)[O-])c(Nc2ccc(C#N)cc2)c1 [Compound I-7, N^1-(4′-cyanophenyl)-5-(2′,6′-dimethylphenoxy)-2-nitroaniline]	>33	0.76 µg/mL (≈ 2.11 µM)		1.18 µg/mL (≈ 3.28 µM)	>85		> 100 µg/mL	> 25 µg/mL				
Cc1cc(Br)cc(C)c1Oc1cc(Nc2ccc(C#N)cc2)c(N)cc1[N+](=O)[O-] [Compound I-5, 4-(4′-Bromo-2′,6′-dimethylphenoxy)-N^2-(4′-cyanophenyl)-5-nitrobenzene-1,2-diamine]	>1000	< 0.025 µg/mL		< 0.02 µg/mL	>3054		61.1 µg/mL (≈ 135 µM)	> 25 µg/mL				
Cc1cc(C)c(Oc2cc(Nc3ccc(C#N)cc3)c([N+](=O)[O-])cc2[N+](=O)[O-])c(C)c1 [Compound I-14, N^1-(4′-cyanophenyl)-5-(2′,4′,6′-trimethylphenoxy)-2,4-dinitroaniline]	>174	0.144 µg/mL (≈ 0.344 µM)	28.8 µg/mL (≈ 68.7 µM)	0.7 µg/mL (≈ 1.67 µM)	41.09	> 25 µg/mL						
Cc1cc(C#N)cc(C)c1Oc1cc(Nc2ccc(C#N)cc2)c(N)cc1[N+](=O)[O-] [Compound I-11, 5-(4′-Cyano-2′,6′-dimethylphenoxy)-N^1-(4′-cyanophenyl)-4-nitrobenzene-1,2-diamine]	>1000	< 0.025 µg/mL		0.013 µg/mL (≈ 0.0325 µM)	4715		61.3 µg/mL (≈ 153 µM)	> 25 µg/mL				
Cc1cc(C#N)cc(C)c1Oc1ccc([N+](=O)[O-])c(Nc2ccc(C#N)cc2)c1 [Compound I-6, N^1-(4′-cyanophenyl)-5-(4′-cyano-2′,6′-dimethylphenoxy)-2-nitroaniline]	>312	0.08 µg/mL (≈ 0.208 µM)		6.63 µg/mL (≈ 17.2 µM)	8.53		56.5 µg/mL (≈ 147 µM)	> 25 µg/mL				
Cc1cc(C#N)cc(C)c1Oc1cc(Nc2ccc(C#N)cc2)c(N)cc1N [Compound I-10, N^1-(4′-cyanophenyl)-5-(4′-Cyano-2′,6′-dimethylphenoxy)benzene-1,2,4-triamine]	>820	< 0.025 µg/mL		0.008 µg/mL (≈ 0.0217 µM)	2425		19.4 µg/mL (≈ 52.5 µM)	20.5 µg/mL (≈ 55.5 µM)				
CC(=O)ON(c1cc(Nc2ccc(C#N)cc2)c([N+](=O)[O-])cc1[N+](=O)[O-])c1c(C)cc(C)cc1C [Compound I-4, N^1-(4′-cyanophenyl)-2,4-dinitro-[N^5-acetoxy-N^5-(2′,4′,6′-trimethylphenyl)]benzene-1,5-diamine]	>14.15				23.45				1.77 µg/mL (≈ 3.72 µM)	61.21 µg/mL (≈ 129 µM)	2.61 µg/mL (≈ 5.49 µM)	>25 µg/mL
Cc1cc(Br)cc(C)c1Oc1ccc(N)c(Nc2ccc(C#N)cc2)c1 [Compound I-13, 4-(4′-Bromo-2′,6′-dimethylphenoxy)-N^2-(4′-cyanophenyl)benzene-1,2-diamine]	128	0.134 µg/mL (≈ 0.328 µM)		0.16 µg/mL (≈ 0.392 µM)	91		14.5 µg/mL (≈ 35.5 µM)	17.2 µg/mL (≈ 42.1 µM)				
